{"source": "ChEMBL document CHEMBL1201862", "about": "“PubChem BioAssay data set” (2004)", "key": {"cells [1]": {"assay": "cells", "type": "functional, cell-based"}, "cells [2]": {"assay": "cells", "type": "functional, cell-based", "remark": "listed apart in the source"}, "[3]": {"biological_target": "T1, Microphthalmia-associated transcription factor (Homo sapiens, UniProt O75030)", "T1 sequence (O75030 whole entry)": "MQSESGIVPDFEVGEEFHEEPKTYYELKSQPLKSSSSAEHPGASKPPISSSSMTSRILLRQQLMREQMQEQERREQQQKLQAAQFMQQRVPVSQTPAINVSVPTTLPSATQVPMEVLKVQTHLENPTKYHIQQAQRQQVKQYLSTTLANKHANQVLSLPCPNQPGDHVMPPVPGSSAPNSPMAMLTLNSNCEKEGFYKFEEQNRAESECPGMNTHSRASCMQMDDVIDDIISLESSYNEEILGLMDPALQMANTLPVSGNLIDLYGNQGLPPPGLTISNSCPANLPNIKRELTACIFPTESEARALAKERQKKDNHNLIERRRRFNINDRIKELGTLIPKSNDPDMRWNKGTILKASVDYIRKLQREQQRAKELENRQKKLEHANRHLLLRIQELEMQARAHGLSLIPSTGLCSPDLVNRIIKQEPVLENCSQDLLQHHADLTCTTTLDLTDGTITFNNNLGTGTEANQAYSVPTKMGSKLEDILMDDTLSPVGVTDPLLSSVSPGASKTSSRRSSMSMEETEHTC", "assay": "reducers of TRPM1 reporter luminescence, concentration series – cell-based, SK-MEL-5, cherry-picked, set 3, MITF inhibitor project, dose response (AID 493073)", "type": "functional"}, "[4]": {"assay": "luciferase reporter signal suppression in cells – H4 neuroglioma cells, luminescence, dose response (AID 1990)", "type": "functional, cell-based"}, "[5]": {"assay": "Luminescence Cell-Based Dose Response HTS to Identify Inhibitors of 5'UTR Stem-Loop Driven Prion Protein mRNA Translation in H4 Neuroglioblastoma Cells. [Related pubchem assays: 1827 (Project Summary), 1813 (Primary HTS)]", "type": "functional"}, "[6]": {"assay": "alpha-synuclein stem-loop luciferase translation blockers – H4 neuroglioma cells, luminescence, confirmation (AID 1988)", "type": "functional, cell-based"}, "[7]": {"biological_target": "T2, Corticotropin-releasing factor receptor 2/Corticotropin-releasing factor-binding protein (Homo sapiens, UniProt P24387+Q13324)", "T2 sequence (Q13324 whole entry)": "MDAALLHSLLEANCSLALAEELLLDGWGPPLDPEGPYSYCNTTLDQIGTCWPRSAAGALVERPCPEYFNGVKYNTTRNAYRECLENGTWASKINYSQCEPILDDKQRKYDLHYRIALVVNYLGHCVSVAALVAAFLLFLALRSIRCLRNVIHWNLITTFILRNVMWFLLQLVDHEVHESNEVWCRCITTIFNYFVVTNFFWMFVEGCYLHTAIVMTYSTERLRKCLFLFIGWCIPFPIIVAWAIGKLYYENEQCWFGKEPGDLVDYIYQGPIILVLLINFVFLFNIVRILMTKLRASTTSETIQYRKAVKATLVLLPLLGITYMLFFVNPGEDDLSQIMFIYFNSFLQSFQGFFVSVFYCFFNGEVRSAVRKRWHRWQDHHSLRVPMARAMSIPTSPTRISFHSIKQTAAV", "T2 sequence (P24387 whole entry)": "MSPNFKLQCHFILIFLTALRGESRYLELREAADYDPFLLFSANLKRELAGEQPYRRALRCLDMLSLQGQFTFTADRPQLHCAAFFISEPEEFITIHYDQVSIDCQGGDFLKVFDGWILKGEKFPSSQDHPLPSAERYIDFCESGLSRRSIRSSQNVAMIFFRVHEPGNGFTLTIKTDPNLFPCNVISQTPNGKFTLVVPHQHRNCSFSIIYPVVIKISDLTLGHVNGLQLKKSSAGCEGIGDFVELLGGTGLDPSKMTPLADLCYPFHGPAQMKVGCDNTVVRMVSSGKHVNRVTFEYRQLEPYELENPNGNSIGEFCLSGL", "assay": "Dose Response confirmation of uHTS hits for small molecule antagonists of the CRF-binding protein and CRF-R2 receptor complex.", "type": "functional", "conditions": "read-out: IC50_Mean"}, "[8]": {"biological_target": "T2, Corticotropin-releasing factor receptor 2/Corticotropin-releasing factor-binding protein", "assay": "activators of CRF receptor 2 with binding protein – uHTS hits, confirmation (AID 602473)", "type": "functional", "conditions": "read-out: EC50_Mean"}, "[9]": {"assay": "blockers of CRF-binding protein–CRF-R2 complex – cell-based, uHTS hits, 384-well, dose response (AID 651639)", "type": "functional, Homo sapiens", "conditions": "read-out: IC50_Mean"}, "[10]": {"assay": "blockers of HIV-1 envelope-mediated cell-cell fusion – cherry-pick, dose response (AID 652057)", "type": "functional, cell-based"}, "[11]": {"assay": "HIV-1 AD8 envelope cell-cell fusion blockers – cherry-pick, dose response (AID 652062);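 further: luciferase signal from cell-cell fusion driven by HIV-1 clade B AD8 Env; potency is for inhibitors of fusion seen as a drop in luminescence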", "type": "functional, cell-based"}, "[12]": {"assay": "Luminescence Cell-Based Dose Confirmation HTS to Identify Activators of 5'UTR Stem-Loop Driven Alpha-Synuclein mRNA Translation in H4 Neuroglioblastoma Cells. [Related pubchem assays: 1829 (Project Summary), 1814 (Primary HTS)]", "type": "functional"}, "H4": {"tested_on": "H4", "assay": "Luminescence Cell-Based Dose Response HTS to Identify Activators of 5'UTR Stem-Loop Driven Prion Protein mRNA Translation in H4 Neuroglioblastoma Cells. [Related pubchem assays: 1829 (Project Summary), 1814 (Primary HTS)]", "type": "functional", "conditions": "Homo sapiens"}, "[13]": {"assay": "Luminescence Cell-Based Dose Response HTS to Identify Activators of Luciferase Translation or Activity in H4 […] Cells. [Related pubchem assays: 1829 (Project Summary), 1814 (Primary HTS)]", "type": "functional"}, "[14]": {"assay": "P. falciparum Dd2 growth inhibitors, dose response, SYBR Green, cherry-picked samples (AID 1159567)", "type": "functional, cell-based"}, "Leucine aminopeptidase": {"biological_target": "T3, Leucine aminopeptidase (Plasmodium falciparum 3D7, UniProt Q8IL11)", "T3 sequence (Q8IL11 whole entry)": "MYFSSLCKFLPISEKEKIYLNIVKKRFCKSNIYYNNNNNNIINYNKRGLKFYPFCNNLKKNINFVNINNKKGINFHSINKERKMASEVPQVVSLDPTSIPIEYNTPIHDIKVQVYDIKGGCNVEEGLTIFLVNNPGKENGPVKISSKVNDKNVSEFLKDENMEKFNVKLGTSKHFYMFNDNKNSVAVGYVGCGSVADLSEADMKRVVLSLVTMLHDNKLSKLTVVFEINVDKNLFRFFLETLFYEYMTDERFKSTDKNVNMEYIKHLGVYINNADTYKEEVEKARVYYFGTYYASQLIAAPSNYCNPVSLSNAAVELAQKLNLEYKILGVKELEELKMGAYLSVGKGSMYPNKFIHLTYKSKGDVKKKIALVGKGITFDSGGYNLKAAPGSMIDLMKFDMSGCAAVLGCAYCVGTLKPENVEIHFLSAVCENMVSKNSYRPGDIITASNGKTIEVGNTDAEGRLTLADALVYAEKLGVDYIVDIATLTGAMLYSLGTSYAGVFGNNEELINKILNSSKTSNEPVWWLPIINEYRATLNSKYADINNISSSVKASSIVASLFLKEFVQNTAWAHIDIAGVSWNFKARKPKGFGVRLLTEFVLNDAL", "assay": "P. falciparum M17LAP inhibitors, primary screen, biochemical, fluorogenic H-Leu-NHMec substrate, 1536-well (AID 1619)", "type": "functional"}, "[15]": {"assay": "viability of HCT116 lacking mutant beta-catenin – cell-based, human colon tumor, dose response (AID 1045);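 further: cells exposed to compound for 60 hours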", "type": "functional"}, "INS1": {"tested_on": "INS1", "assay": "INS-1E survival protection against cytokine death – cell-based, luminescence, retest, dose response (AID 449756);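 further: cell death triggered by IL-1 beta plus TNF-alpha plus IFN-gamma mixture; protective hits raise ATP signal compared with cytokine alone wells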", "type": "functional", "conditions": "Rattus norvegicus"}, "[16]": {"assay": "viability of PTEN-deleted HCT116 cells – cell-based, HCT116 PTEN knockout, dose response (AID 1047);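 further: cells exposed to compound for 60 hours before readout; potency for loss of cell viability measured by luminescence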", "type": "functional"}, "[17]": {"biological_target": "T4, Heat shock factor protein 1 (Mus musculus, UniProt P38532)", "T4 sequence (P38532 whole entry)": "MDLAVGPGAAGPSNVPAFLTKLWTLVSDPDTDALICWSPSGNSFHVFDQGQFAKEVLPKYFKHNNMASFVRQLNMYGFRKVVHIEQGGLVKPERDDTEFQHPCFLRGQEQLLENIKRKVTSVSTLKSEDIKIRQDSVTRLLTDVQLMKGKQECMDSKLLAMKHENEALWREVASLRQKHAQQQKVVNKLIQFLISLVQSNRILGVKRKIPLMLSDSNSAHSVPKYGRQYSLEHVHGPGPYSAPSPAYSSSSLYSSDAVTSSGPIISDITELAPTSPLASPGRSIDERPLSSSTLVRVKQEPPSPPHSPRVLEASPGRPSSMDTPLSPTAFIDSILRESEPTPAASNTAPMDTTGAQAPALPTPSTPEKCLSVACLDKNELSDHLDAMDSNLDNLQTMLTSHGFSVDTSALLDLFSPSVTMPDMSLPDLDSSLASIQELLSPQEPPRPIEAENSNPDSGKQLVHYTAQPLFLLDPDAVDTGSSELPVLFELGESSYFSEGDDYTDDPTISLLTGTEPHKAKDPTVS", "assay": "enhancement of HSF1-driven luciferase signal – cell-based, NIH3T3, luminescence, dose retest, confirmation (AID 435004);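 further: stress induced by proteasome inhibitor MG132 added 30 min after compound; actives raise luminescence as potentiators of the MG132 stress response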", "type": "functional"}, "[18]": {"biological_target": "FAD-linked sulfhydryl oxidase ALR (Homo sapiens, UniProt P55789)", "sequence (P55789 whole entry)": "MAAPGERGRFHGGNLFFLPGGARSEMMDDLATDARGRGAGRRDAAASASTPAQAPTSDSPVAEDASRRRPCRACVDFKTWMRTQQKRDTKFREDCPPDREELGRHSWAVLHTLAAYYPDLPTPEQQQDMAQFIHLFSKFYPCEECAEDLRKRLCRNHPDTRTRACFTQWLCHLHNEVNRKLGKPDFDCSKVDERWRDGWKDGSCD", "assay": "ALR-catalysed DTT oxidation blockers – biochemical, H2O2 detection, luminescence, cherry-pick, dose response (AID 493248)"}}, "note": "The source made the active and inactive calls."}
{"smiles": "O=C(CN(Cc1ccc(F)cc1)C(=O)CCC(=O)Nc1nccs1)NCC1CCCO1", "note": "(configuration not stated)", "values": [{"measurement": "EC50", "setting": "cells [1]", "result": "35.3 µM (active)"}, {"measurement": "EC50", "setting": "cells [2]", "result": "> 350 µM (not active)"}]}
{"smiles": "C=CC[n+]1c(-c2ccc(C)cc2)csc1Nc1ccc(NC(C)=O)cc1", "values": [{"measurement": "AC50", "setting": "[3]", "result": "1.57 µM (active)"}, {"measurement": "EC50", "setting": "[4]", "result": "2.34 µM (active)"}, {"measurement": "EC50", "setting": "[5]", "result": "0.238 µM (active)"}, {"measurement": "EC50", "setting": "[6]", "result": "0.246 µM (active)"}]}
{"smiles": "CCCNc1ccc(C(=O)OCC)cc1[N+](=O)[O-]", "values": [{"measurement": "IC50", "setting": "[7]", "result": "17.6 µM (active)"}, {"measurement": "EC50", "setting": "[8]", "result": "> 53 µM (inactive)"}, {"measurement": "IC50", "setting": "[9]", "result": "> 20 µM (inactive)"}]}
{"smiles": "CN1C(=O)c2cc(NC(=O)c3cscn3)ccc2OC[C@@H]2O[C@@H](CC(=O)NCc3ccc(Cl)c(Cl)c3)CC[C@H]21", "values": [{"measurement": "AC50", "setting": "[10]", "result": "48.6 µM (active)"}, {"measurement": "AC50", "setting": "[11]", "result": "3.19 µM (active)"}]}
{"smiles": "COc1cc2nc3c(O)n4c(nc-3c2cc1OC)SCCC4", "values": [{"measurement": "EC50", "setting": "[12]", "result": "> 120 µM (not active)"}, {"measurement": "EC50", "setting": "H4", "result": "24.5 µM (active)"}, {"measurement": "IC50", "setting": "[7]", "result": "3.83 µM (active)"}, {"measurement": "EC50", "setting": "[8]", "result": "> 53 µM (inactive)"}, {"measurement": "EC50", "setting": "[13]", "result": "3.61 µM (active)"}, {"measurement": "IC50", "setting": "[9]", "result": "> 20 µM (inactive)"}]}
{"smiles": "C[C@@H]1CN([C@@H](C)CO)C(=O)c2cc(NC(=O)Nc3ccc4c(c3)OCO4)ccc2O[C@H]1CN(C)C(=O)Nc1cccc2ccccc12", "values": [{"measurement": "AC50", "setting": "[14]", "result": "4.89 µM (active)"}]}
{"smiles": "O=C(CN1C(=O)S/C(=C/C=C/c2ccccc2)C1=O)Nc1ccc(C(=O)O)cc1", "values": [{"measurement": "IC50", "setting": "Leucine aminopeptidase", "result": "24.5 µM (active)"}]}
{"smiles": "CCOC(=O)c1c(NC(=O)c2cc(-c3ccc(Cl)s3)nc3ccccc23)sc(C(N)=O)c1C", "values": [{"measurement": "EC50", "setting": "[15]", "result": "7.35 µM (active)"}, {"measurement": "AC50", "setting": "INS1", "result": "7.98 µM (active)"}, {"measurement": "EC50", "setting": "[16]", "result": "5.74 µM (active)"}]}
{"smiles": "CCCC(=O)Nc1ccc2c(c1)OC[C@@H](C)N(Cc1cc(-c3ccccc3)on1)C[C@@H](C)[C@H](OC)CN(C)C2=O", "values": [{"measurement": "AC50", "setting": "[14]", "result": "5.19 µM (active)"}]}
{"smiles": "O=C(O)CC12C[C@H]3C[C@@H](C1)CC(n1ncc(N4CCN(c5ccccc5)CC4)c(Cl)c1=O)(C3)C2", "values": [{"measurement": "IC50", "setting": "Leucine aminopeptidase", "result": "152 µM (active)"}, {"measurement": "EC50", "setting": "[17]", "result": "> 260 µM (inactive)"}]}
{"smiles": "CCN(CC)C(=O)[C@H]1CC(CC(=O)NC/C=C(\\C)CCC=C(C)C)C(=O)N2CCc3c([nH]c4ccc(OC)cc34)[C@]12C", "note": "(some centres not stated)", "values": [{"measurement": "IC50", "setting": "[7]", "result": "3.54 µM (active)"}, {"measurement": "EC50", "setting": "[8]", "result": "> 53 µM (inactive)"}, {"measurement": "IC50", "setting": "[9]", "result": "1.33 µM (active)"}]}
{"smiles": "COc1ccc(N2C(=O)CSC2c2ccc([N+](=O)[O-])cc2)cc1", "note": "(configuration not stated)", "values": [{"measurement": "IC50", "setting": "[7]", "result": "46.8 µM (active)"}, {"measurement": "EC50", "setting": "[8]", "result": "> 53 µM (inactive)"}, {"measurement": "IC50", "setting": "[9]", "result": "6.91 µM (active)"}, {"measurement": "AC50", "setting": "[18]", "result": "5.9 µM (active)"}]}
